Experimental findings from patent publication US12673935B2, “Pyrimidine derivative, and preparation method therefor and use thereof” (CGENETECH (SUZHOU, CHINA) CO., LTD., priority 2020, dated 2026) are described below.

For one assay, the target named is CDK2/human cyclin E (Homo sapiens, UniProt P24941). The assay can be described thus: Determination of activity of CDK2 kinase (Caliper mobility shift). As to conditions: 10 μM ATP, 0.1 nM enzyme, 25° C. 6 hours; read-out: CDK2/CycE IC50. The class given is biochemical. As for the experimental part: The activity of CDK2 kinase in vitro was tested by the following method: • Final buffer: • 100 mM 4-hydroxyethyl piperazine ethanesulfonic acid, pH 7.5; • 0.1% bovine serum albumin; • 0.01% Triton X-100; • 1 mM dithiothreitol; • 5 mM magnesium chloride; • 10 μM sodium orthovanadate; • 10 μM sodium P-glycerophosphate; • 10 μM ATP; • 1% DMSO (from the compound to be tested); • Substrate Peptide: 1 μM FAM-[…]-OH, wherein FAM is 5-carboxyfluorescein; • 0.1 nM CDK2/human cyclin E.
(§1) 5 μL of buffer, 0.1 μL of compound to be tested (DMSO, 100 times the highest concentration) and 5 μL of substrate peptide buffer were added to a 384-well plate. The reaction was terminated with EDTA after culturing at 25° C. for 6 hours. Electrophoresis reading was started (Caliper LabChip® 3000 Drug Discovery System, blue laser (480 nm) for excitation, green CCD (520 nm) for detection of CCD2).

A further assay concerns the target T1, CDK6/human cyclin D3 (Homo sapiens, UniProt Q00534).
T1 construct: purchased Carna 04-107
The assay can be described thus: Determination of activity of CDK6 kinase (Caliper mobility shift). As to conditions: 300 μM ATP, 2 nM enzyme, 25° C. 3 hours; read-out: CDK6/CycD3 IC50. The class given is biochemical. As for the experimental part: The activity of CDK6 kinase in vitro was tested by the following method: • 2 nM CDK6/human cyclin D3 (Carna, No. 04-107) • Final buffer: • 100 mM 4-hydroxyethyl piperazine ethanesulfonic acid, pH 7.5; • 0.1% bovine serum albumin; • 0.01% Triton X-100; • 1 mM dithiothreitol; • 5 mM magnesium chloride; • 10 μM sodium orthovanadate; • 10 μM sodium P-glycerophosphate; • 300 μM ATP; • 1% DMSO (from the compound to be tested); • Substrate peptide: Dyrktide;
5 μL of buffer, 0.1 μL of compound to be tested (DMSO, 100 times the highest concentration) and 5 μL of substrate peptide buffer were added to a 384-well plate. The reaction was terminated with EDTA after culturing at 25° C. for 3 hours. Electrophoresis reading was started (Caliper LabChip® 3000 Drug Discovery System, blue laser (480 nm) for excitation, green CCD (520 nm) for detection of CCD2).

In a further assay the target is CDK4/human cyclin D1 (Homo sapiens, UniProt P11802). The assay can be described thus: Determination of activity of CDK4 kinase (Caliper mobility shift). The class given is biochemical. Particulars: 25 μM ATP, 5 nM enzyme, 25° C. 6 hours; read-out: CDK4/CycD1 IC50. As for the experimental part:
The activity of CDK4 kinase in vitro was tested by the following method: • Final buffer: • 100 mM 4-hydroxyethyl piperazine ethanesulfonic acid, pH 7.5; • 0.1% bovine serum albumin; • 0.01% Triton X-100; • 1 mM dithiothreitol; • 5 mM magnesium chloride; • 10 μM sodium orthovanadate; • 10 μM sodium P-glycerophosphate; • 25 μM ATP; • 1% DMSO (from the compound to be tested); • Substrate Peptide: 1 μM FAM-[…]-NH2 segment, wherein FAM is 5-carboxyfluorescein; • 5 nM CDK4/human cyclin D1.
as §1

For another assay, the system named is MDA-MB-468 cells. The assay can be described thus: Determination of activity of MDA-MB-468 cells (CellTiter-Glo). The class given is cell-based. Particulars: Homo sapiens, MDA-MB-468, 120 h, 5 days culture. As for the experimental part:
• MDA-MB-468 (ATCC No. HTB-132); • RPMI 1640 (Invitrogen No. 22400089); • FBS (Hyclone No. SV30087.03); • Pen Strep (Hyclone No. SV30010); • CellTiter-Glo (Promega No. G7573); • Medium: 89% RPMI 1640, 10% FBS and 1% Pen Strep;
300 MDA-MB-468 cells and 50 μL of medium were inoculated in a plate with 100 μL of PBS buffer added, which was then cultured for 24 hours at 37° C./5% CO2, then 250 nL of samples, which were taken from the compounds to be tested at ten test points and diluted with four times DMSO, were added to the plate wells and cultured for 5 days at 37° C./5% CO2, then 25 μL of CellTiter-Glo was added to each plate well, followed by centrifugation by rotating (1000 rpm) for 15 seconds, and vibration mixing (400 rpm) for 10 minutes, the microplate reader Envision was started to read.
On the technique in general: Cellular ATP, detected with luciferase, serves as a proxy for viable cell number.

T1 sequence (Q00534 whole entry): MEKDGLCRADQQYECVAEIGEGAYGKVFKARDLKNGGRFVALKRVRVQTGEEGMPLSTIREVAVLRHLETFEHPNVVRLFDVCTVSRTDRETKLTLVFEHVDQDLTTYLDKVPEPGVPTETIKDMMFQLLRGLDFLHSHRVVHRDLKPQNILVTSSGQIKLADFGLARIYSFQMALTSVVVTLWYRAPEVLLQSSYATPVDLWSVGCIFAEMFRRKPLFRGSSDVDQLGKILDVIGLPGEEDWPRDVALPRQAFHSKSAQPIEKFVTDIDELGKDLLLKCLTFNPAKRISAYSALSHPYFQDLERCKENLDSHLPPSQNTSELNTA
T1 sequence (P30281 whole entry partner): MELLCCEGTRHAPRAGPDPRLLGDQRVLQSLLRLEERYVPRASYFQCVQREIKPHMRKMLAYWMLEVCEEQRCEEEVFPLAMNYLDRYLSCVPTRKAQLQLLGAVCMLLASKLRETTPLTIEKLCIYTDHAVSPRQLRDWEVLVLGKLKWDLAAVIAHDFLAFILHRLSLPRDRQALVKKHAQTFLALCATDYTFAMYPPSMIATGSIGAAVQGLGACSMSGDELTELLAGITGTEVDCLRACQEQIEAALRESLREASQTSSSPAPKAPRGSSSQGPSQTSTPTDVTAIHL
CDK4/human cyclin D1, sequence (P11802 whole entry): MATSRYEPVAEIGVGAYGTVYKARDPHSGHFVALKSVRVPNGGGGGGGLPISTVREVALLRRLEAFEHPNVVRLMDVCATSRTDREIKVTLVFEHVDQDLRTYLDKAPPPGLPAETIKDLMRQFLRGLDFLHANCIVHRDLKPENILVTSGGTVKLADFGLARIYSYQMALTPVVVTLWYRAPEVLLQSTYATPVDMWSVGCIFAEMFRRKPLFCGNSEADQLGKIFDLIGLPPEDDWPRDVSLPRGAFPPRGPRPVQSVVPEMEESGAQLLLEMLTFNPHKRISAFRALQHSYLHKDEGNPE
CDK4/human cyclin D1, sequence (P24385 whole entry partner): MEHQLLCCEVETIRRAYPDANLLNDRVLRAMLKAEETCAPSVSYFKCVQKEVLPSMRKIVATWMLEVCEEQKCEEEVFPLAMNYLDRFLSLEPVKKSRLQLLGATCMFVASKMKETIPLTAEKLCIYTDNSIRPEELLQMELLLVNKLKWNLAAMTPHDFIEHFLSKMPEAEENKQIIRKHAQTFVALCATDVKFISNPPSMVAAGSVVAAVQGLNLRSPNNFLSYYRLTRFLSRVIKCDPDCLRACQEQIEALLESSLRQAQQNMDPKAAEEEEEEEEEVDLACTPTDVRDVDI

Take `Cc1nc2c(F)cc(-c3nc(Nc4ccc(N5CCC(N(C)CCO)CC5)cn4)ncc3F)cc2n1C(C)C` [Compound 1963]: the IC50 at CDK2/human cyclin E was 101 nM; at CDK6/human cyclin D3 it was 1 nM; at CDK4/human cyclin D1 it was 1.78 nM; in the assay with MDA-MB-468 cells it was 459 nM.

Take `Cc1nc2c(F)cc(-c3nc(Nc4ccc(CN5CCC(N(C)CCO)CC5)cn4)ncc3F)cc2n1C(C)C` [Compound 1964]: the IC50 on CDK2/human cyclin E turned out to be 313 nM; on CDK6/human cyclin D3 it was 8.6 nM; at CDK4/human cyclin D1 it was 1.4 nM; with MDA-MB-468 cells it was 126 nM.

As to `CNC1CCN(c2ccc(Nc3ncc(F)c(-c4cc(F)c5nc(C)n(C(C)C)c5c4)n3)nc2)CC1` [Compound 1967], the IC50 on CDK2/human cyclin E turned out to be 122 nM; at CDK6/human cyclin D3, 1.23 nM; at CDK4/human cyclin D1, 0.17 nM; with MDA-MB-468 cells it was 682 nM.

For the molecule `CC(C)n1c(CF)nc2c(F)cc(-c3nc(Nc4ccc(CN5CCC(N(C)C)CC5)cn4)ncc3F)cc21` [Compound 1975], the IC50 at CDK2/human cyclin E was 8.2 nM; on CDK6/human cyclin D3 it was 6.7 nM; at CDK4/human cyclin D1, 1.55 nM; in the assay on MDA-MB-468 cells it was 457 nM.

Take `CCN1CCN(Cc2ccc(Nc3ncc(F)c(-c4cc(F)c5nc(CF)n(C(C)C)c5c4)n3)nc2)CC1` [Compound 1978]: the IC50 on CDK2/human cyclin E turned out to be 459 nM; at CDK6/human cyclin D3, 9.8 nM; at CDK4/human cyclin D1 it was 2.6 nM; with MDA-MB-468 cells, 1150 nM.

Consider `Cc1nc2c(F)cc(-c3nc(Nc4ccc(CN5CCN(CCO)CC5)cn4)ncc3F)cc2n1C(C)C` [Compound 1979], for which the IC50 was determined as 163 nM at CDK2/human cyclin E, 4.1 nM at CDK6/human cyclin D3, 0.83 nM at CDK4/human cyclin D1 and 1390 nM with MDA-MB-468 cells.

Turning to `CC(C)n1c(CF)nc2c(F)cc(-c3nc(Nc4ccc(N5CCC(N(C)C)CC5)cn4)ncc3F)cc21` [Compound 1984], the IC50 on CDK2/human cyclin E was 231 nM; on CDK6/human cyclin D3, 3.9 nM; on CDK4/human cyclin D1, 1.25 nM; in the assay on MDA-MB-468 cells, 344 nM.

Take `CCN1CCN(c2ccc(Nc3ncc(F)c(-c4cc(F)c5nc(CF)n(C(C)C)c5c4)n3)nc2)CC1` [Compound 1985]: the IC50 is 128 nM at CDK2/human cyclin E, 3 nM at CDK6/human cyclin D3, 0.98 nM on CDK4/human cyclin D1 and 454 nM in the assay with MDA-MB-468 cells.

For `Cc1nc2c(F)cc(-c3nc(Nc4ccc(N5CCN(CCO)CC5)cn4)ncc3F)cc2n1C(C)C` [Compound 1986], the IC50 on CDK2/human cyclin E came out at 95 nM; on CDK6/human cyclin D3, 1.8 nM; at CDK4/human cyclin D1, 1.2 nM; with MDA-MB-468 cells, 573 nM.

On to `Cc1nc2c(F)cc(-c3nc(Nc4ccc(N5CCN(CC(C)O)CC5)cn4)ncc3F)cc2n1C(C)C` (centres unmarked) [Compound 1987], for which the IC50 at CDK2/human cyclin E came out at 355 nM; on CDK6/human cyclin D3 it was 5.9 nM; on CDK4/human cyclin D1 it was 1.2 nM; in the assay with MDA-MB-468 cells, 345 nM.

Consider `COCCN1CCN(c2ccc(Nc3ncc(F)c(-c4cc(F)c5nc(C)n(C(C)C)c5c4)n3)nc2)CC1` [Compound 1988], for which the IC50 on CDK2/human cyclin E was determined as 92 nM; on CDK6/human cyclin D3 it was 1.1 nM; at CDK4/human cyclin D1, 0.75 nM; with MDA-MB-468 cells, 529 nM.

For `CC(C)n1c(CF)nc2c(F)cc(-c3nc(Nc4ccc(N5CCC(N(C)CCO)CC5)cn4)ncc3F)cc21` [Compound 1990], the IC50 is 5.3 nM at CDK2/human cyclin E, 4.8 nM at CDK6/human cyclin D3, 1.54 nM on CDK4/human cyclin D1 and 276 nM in the assay on MDA-MB-468 cells.

Turning to `CCN1CCN(Cc2ccc(Nc3ncc(F)c(-c4cc(F)c5nc(CO)n(C(C)C)c5c4)n3)nc2)CC1` [Compound 1994], the IC50 was found to be 82 nM on CDK2/human cyclin E, 8.7 nM on CDK6/human cyclin D3, 0.67 nM on CDK4/human cyclin D1 and 485 nM in the assay with MDA-MB-468 cells.

Turning to `CC(C)n1c(CF)nc2c(F)cc(-c3nc(Nc4ccc(CN5CCC(N(C)CCO)CC5)cn4)ncc3F)cc21` [Compound 1995], the IC50 at CDK2/human cyclin E was found to be 6.2 nM; on CDK6/human cyclin D3 it was 10.1 nM; at CDK4/human cyclin D1 it was 1.75 nM; in the assay with MDA-MB-468 cells, 186 nM.
